The values below come from the Deep4Chem optical property database.

Each structure is given as a SMILES string.

The nature of the series: solvent given as SMILES.

`CCCCNc1ccc2n1[B-](F)(F)[N+]1=CC(/C=C/C(=O)OC(C)(C)C)=CC1=C2c1c(C)cc(C)cc1C` came in with an emission maximum (in ClCCl) of 546 nm.
Turning to `F[B-]1(F)n2c(ccc2-c2cccs2)C(C(F)(F)F)=C2C=CC(c3cccs3)=[N+]21`, the emission maximum (in CCCCCC) is 674 nm.
As to `COc1cc(N(c2ccccc2)c2ccccc2)ccc1C=C(C#N)C#N`, the emission maximum runs as follows: (in C1COCCO1) 548 nm; (in CC#N) 581 nm; (in CC(C)=O) 587 nm; (in CCOC(C)=O) 573 nm; (in CN(C)C=O) 558 nm; (in CO) 562 nm. This molecule yielded an emission maximum (in Cc1ccccc1) of 525 nm, an emission maximum (in ClC(Cl)Cl) of 567 nm and an emission maximum (in ClCCl) of 590 nm.
In the case of `c1ccc2c(c1)-c1sc3ccccc3c1C21c2ccccc2-c2sc3ccccc3c21`, where the note is “in ClCCl”, the emission maximum is 368 nm.
As to `Cc1ccc(/C=C(\c2ccccc2)c2nc3ccccc3o2)cc1`, the emission maximum reads like this: (in C1CCCCC1) 380 nm; (in CO) 385 nm.
Molecule `O=[N+]([O-])c1ccc(/C=C/c2c[nH]c3ccccc23)cc1` displayed an emission maximum (in CC#N) of 642 nm, an emission maximum (in CCCCCCC) of 511 nm, an emission maximum (in CO) of 567 nm and an emission maximum (in O) of 552 nm.
With `CN(C)c1ccc(/C=C/c2ncccn2)cc1`, where the note is “in ClCCl”, the emission maximum stood at 472 nm.
`COc1ccc(C2=[N+]3C(=Nc4c(-c5cc(OC)c(OC)c(OC)c5)c(-c5ccc(C(C)(C)C)cc5)c(-c5ccc(OC)cc5)n4[B-]3(F)F)C(c3cc(OC)c(OC)c(OC)c3)=C2c2ccc(C(C)(C)C)cc2)cc1` came in with an emission maximum (in Cc1ccccc1) of 726 nm.
For `Fc1ccc(N(c2ccc(F)cc2)c2ccc3c4cccc5c(N(c6ccc(F)cc6)c6ccc(F)cc6)ccc(c6cccc2c63)c54)cc1`, the emission maximum (in C1CCCCC1) is given as 529 nm; the emission maximum (in C1CCOC1) came to 544 nm; the emission maximum (in CC#N) stood at 548 nm; the emission maximum (in Cc1ccccc1) is 540 nm; the emission maximum (in ClCCl) worked out at 546 nm.
For `O=[N+]([O-])c1ccc(/C=C/c2nc3c4ccccc4c4ccccc4c3o2)cc1`, the emission maximum (in CC#N) was determined as 602 nm.
Where the note is “in CS(C)=O”, `Cc1cc2c(cc1C)NC(=O)CC(=O)N2` gave an emission maximum of 349 nm.
As for `COc1ccc(-c2cc3c(s2)=CC2=C(C(F)(F)F)c4cc5sc(-c6ccc(OC)cc6)cc5n4[B-](F)(F)[N+]=32)cc1`, the emission maximum was found to be 754 nm (in C1CCOC1) and 754 nm (in ClC(Cl)Cl).
Regarding `CCCSc1ccc2n1[B-](F)(F)[N+]1=CC=CC1=C2c1ccccc1`, the emission maximum runs as follows: (in CC#N) 585 nm; (in CCCCCC) 588 nm; (in CCOC(C)=O) 589 nm; (in CO) 583 nm; (in ClCCl) 594 nm.
Turning to `CN1C(=CC2=C([O-])C(=CC3=[N+](C)c4ccccc4C3(C)C)C2=NC#N)C(C)(C)c2ccccc21`, the emission maximum (in ClC(Cl)Cl) was 665 nm.
On to `CN(C)c1ccc2c(C(=O)NCc3ccccc3)cc(C(=O)[O-])nc2c1`, for which the emission maximum (in CCO) is listed as 603 nm.
For the setting “in ClCCl”, `CN1CCN(c2cccc(/C=C/c3ncc(-c4ccc(OCc5ccccc5)c(OCc5ccccc5)c4)o3)c2)CC1` yielded an emission maximum of 465 nm.
Take `CCCCC1=Cc2c3ccc4cccc5ccc(c6cc(-c7ccccc7)n(c26)P1(=O)c1ccccc1)c3c45` (centres undefined): the emission maximum is given as 452 nm (in C1CCCCC1); 459 nm (in C1CCOC1); 460 nm (in C1COCCO1); 459 nm (in CC#N); 459 nm (in CC(C)=O); 459 nm (in CO). For the same molecule, the emission maximum is 460 nm (in Cc1ccccc1), 458 nm (in ClC(Cl)Cl) and 459 nm (in ClCCl).
`O=c1oc2ccccc2c2c1c(=O)oc1cc(O)c3ccccc3c12` returned an emission maximum (in ClCCl) of 529 nm.
Under “in ClCCl”, `COc1ccc(-c2cc(-c3ccc(C#N)cc3)nn2C)cc1` gave an emission maximum of 384 nm.
On to `Cc1ccc(-n2c(C)ccc2C)cc1`, for which the emission maximum amounted to 409 nm (in CC#N) and 337 nm (in CCCCCC).
Regarding `CC(C)(C)c1ccc2c(c1)B1c3cc(C(C)(C)C)ccc3Oc3cc(-n4c5ccccc5c5c6c(c7ccccc7n6-c6ccccc6)c6c(c7ccccc7n6-c6ccccc6)c54)cc(c31)O2`, the emission maximum (in Cc1ccccc1) is 456 nm.
As to `COc1cnc(-c2cc[n+](C3=C(F)C(F)(F)C(F)(F)[C-]3F)cc2)s1`, the emission maximum (in CC#N) turned out to be 474 nm; the emission maximum (in CC(C)=O) is 474 nm; the emission maximum (in CCO) came out at 474 nm; the emission maximum (in CN(C)C=O) was 485 nm; the emission maximum (in CO) is 472 nm; the emission maximum (in CS(C)=O) was 490 nm. For the same molecule, the emission maximum reads like this: (in ClC(Cl)Cl) 462 nm; (in ClCCl) 466 nm.
In the case of `COc1cccc(/C=C/C(=O)c2c(O)cc(C)oc2=O)c1`, the emission maximum reads like this: (in CC#N) 500 nm; (in ClCCl) 490 nm.
`COc1ccc(C2=C3C(/C=C/c4cc(OC)c(OC)c(OC)c4)=C(C=O)C(/C=C/c4cc(OC)c(OC)c(OC)c4)=[N+]3[B-](F)(F)n3c(/C=C/c4cc(OC)c(OC)c(OC)c4)c(C=O)c(C=Cc4cc(OC)c(OC)c(OC)c4)c32)cc1`: the emission maximum (in ClCCl) is reported as 722 nm.
On the same count and under the same terms, next, `CCCCCCN1C(=O)c2cccc3c(-c4ccc(-c5cc(-c6ccc(Cl)cc6)n(-c6ccccc6)n5)s4)ccc(c23)C1=O`: 517 nm.
`c1cncc(-c2ccc(-c3c4ccccc4c(-c4ccc(-c5cccnc5)cc4)c4cc(-c5cccnc5)ccc34)cc2)c1`: the emission maximum (in ClCCl) stood at 434 nm.
In the case of `N#Cc1c(N2CCCC2)cc(-c2ccccc2)c2c1-c1ccccc1C2`, the emission maximum (in C1CCOC1) was 446 nm.
With `CC1=C(c2ccc(N(C)C)cc2)C(C)=[N+]2C1=C(c1c(-c3ccccn3)nc3ccccn13)c1c(C)c(-c3ccc(N(C)C)cc3)c(C)n1[B-]2(F)F`, the emission maximum (in ClCCl) came to 722 nm.
On the same count and under the same terms, next, `CC(C)(C)c1ccc(-c2ccc(-c3ccc(C(C)(C)C)cc3)c3nsnc23)cc1`: 512 nm.
Regarding `CN(C)c1ccc(/C=C/c2cc[n+](CCCCCCCCCCCC[n+]3ccc(/C=C/c4ccc(N(C)C)cc4)cc3)cc2)cc1`, the emission maximum runs as follows: (in CC1COC(=O)O1) 602 nm; (in CC#N) 602 nm; (in CC(C)=O) 602 nm; (in CC(C)O) 590 nm; (in CCO) 593 nm; (in CN(C)C=O) 602 nm. In addition, the emission maximum came to 597 nm (in CO); 607 nm (in CS(C)=O); 580 nm (in ClC(Cl)Cl); 597 nm (in O); 598 nm (in c1ccncc1).
`CCN1c2ccc(C3=CC(c4ccccc4)=[O+][B-](F)(F)O3)cc2Sc2cc(C3=CC(c4ccccc4)=[O+][B-](F)(F)O3)ccc21` showed an emission maximum (in ClCCl) of 639 nm.
For `Cn1nc(-c2ccccc2)c2nc3cc(F)ccc3nc21`, the emission maximum runs as follows: (in C1CCCCC1) 486 nm; (in C1CCOC1) 520 nm; (in CC#N) 535 nm.
Where the note is “in ClC(Cl)Cl”, `CCc1ccc(-n2c3ccccc3c3cc4c(cc32)c2ccccc2n4-c2ccc(CC)cc2)cc1` registered an emission maximum of 415 nm.
The molecule `c1ccc(N(c2ccccc2)c2ccc(-c3ncc(-c4cnc(-c5ccc(N(c6ccccc6)c6ccccc6)cc5)s4)s3)cc2)cc1` came in with an emission maximum (in CO) of 510 nm.
